The target of data set [1] is HDAC6 human recombinant enzyme (Homo sapiens (Human), UniProt Q9UBN7). Put plainly: Histone Deacetylase Assay (BPS Biosciences), HDAC6. Type of data set: biochemical. The source says:
Histone Deacetylase Assay (BPS Biosciences)
Histone deacetylase assay was done as per manufacturer's instructions.

The subject of another data set is MM1S. The experiment in a line: Anticancer activity: Alamar Blue assay, MM1S. It is filed as cell-based. As to conditions: Homo sapiens, MM1.S, read-out: MM1S EC50. (In general: Resazurin is reduced to fluorescent resorufin, in cell work by metabolically active cells.)
The next data set deals with LSD1 (Homo sapiens (Human), UniProt O60341). The experiment in a line: TR-FRET Assay for LSD1.
Data set [2] is described as follows: Metabolic stability in liver microsomes, HLM. As to conditions: 1 μM, NADPH.
Description: (§1) The microsomal suspension was prepared by adding liver microsomes to 100 mM potassium phosphate buffer (pH7.4) to give a final protein concentration of 0.5 mg/mL. The stock solution of NCE (10 mM in DMSO) was added to the microsomes to provide a final concentration of 1 μM. […] Samples were vortexed and centrifuged at 5,000 rpm for 10 min to remove proteins. Supernatant were analyzed on LC-MS/MS.
The nature of data set [3]: Metabolic stability in liver microsomes, MLM. The following applies: 1 μM, NADPH.
Description: as §1

Data on 18 molecules can be found in US11352322B2, “Cyclopropyl-amide compounds as dual LSD1/HDAC inhibitors” (Jubilant Epicore LLC, priority 2016, dated 2022).

Where a name gives a salt, the structure may show the parent alone. Read-outs that look alike come from different tables or passages of the source. Bounds are passed on as bounds.

Sequence of HDAC6 human recombinant enzyme (Q9UBN7 whole entry): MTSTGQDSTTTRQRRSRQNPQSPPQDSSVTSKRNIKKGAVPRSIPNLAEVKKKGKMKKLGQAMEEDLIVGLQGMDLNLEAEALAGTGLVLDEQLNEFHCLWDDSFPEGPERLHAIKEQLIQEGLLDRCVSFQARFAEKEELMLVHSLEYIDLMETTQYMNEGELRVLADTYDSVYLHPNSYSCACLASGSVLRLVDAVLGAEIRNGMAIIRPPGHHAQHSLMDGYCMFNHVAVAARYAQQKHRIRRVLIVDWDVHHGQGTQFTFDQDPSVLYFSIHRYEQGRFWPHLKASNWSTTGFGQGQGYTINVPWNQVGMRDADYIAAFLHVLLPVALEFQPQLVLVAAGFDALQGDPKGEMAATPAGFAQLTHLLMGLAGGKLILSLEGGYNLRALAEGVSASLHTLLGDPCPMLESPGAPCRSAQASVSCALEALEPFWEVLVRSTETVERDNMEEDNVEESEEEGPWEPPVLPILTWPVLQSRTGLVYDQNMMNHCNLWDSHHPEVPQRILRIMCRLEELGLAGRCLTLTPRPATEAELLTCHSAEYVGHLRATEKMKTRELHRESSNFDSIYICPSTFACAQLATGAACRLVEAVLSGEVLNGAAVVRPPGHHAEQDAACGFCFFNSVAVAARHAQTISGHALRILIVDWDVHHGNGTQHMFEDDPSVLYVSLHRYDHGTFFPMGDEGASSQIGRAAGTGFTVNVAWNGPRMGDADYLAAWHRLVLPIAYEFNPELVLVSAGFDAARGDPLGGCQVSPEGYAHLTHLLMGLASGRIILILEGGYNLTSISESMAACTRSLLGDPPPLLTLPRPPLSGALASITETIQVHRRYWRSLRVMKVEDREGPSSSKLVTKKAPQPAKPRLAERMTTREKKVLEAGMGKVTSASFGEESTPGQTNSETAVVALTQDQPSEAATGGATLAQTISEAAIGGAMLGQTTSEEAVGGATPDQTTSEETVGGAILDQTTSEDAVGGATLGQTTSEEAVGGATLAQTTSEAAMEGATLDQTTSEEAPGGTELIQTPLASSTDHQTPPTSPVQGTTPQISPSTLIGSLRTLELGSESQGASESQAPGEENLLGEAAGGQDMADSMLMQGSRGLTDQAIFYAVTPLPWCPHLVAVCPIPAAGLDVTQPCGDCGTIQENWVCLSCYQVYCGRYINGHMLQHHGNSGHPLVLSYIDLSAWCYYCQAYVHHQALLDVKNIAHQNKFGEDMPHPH
Description for LSD1: TR-FRET Assay for LSD1 (Perkin Elmer)
Tranylcypromine (TCP), LSD1 inhibitor was procured from Selleckchem. […] Stop Solution containing 300 μM tranylcypromine in 1× LANCE Detection Buffer was added to the wells and incubated for 5 min at RT. Then, Detection mix containing 2 nM Eu-Ab and 50 nM ULight-Streptavidin in 1× LANCE Detection Buffer was prepared and added to the reaction mix. This mixture was incubated for 1 hour at room temperature.

Broadly, the IC50 is the midpoint of a concentration-inhibition curve. The EC50 is the concentration giving half of the maximal effect. For `O=C(NO)c1coc(CCCN2CCC(CNC3CC3c3ccccc3)CC2)n1.O=C(O)C(F)(F)F` (stereo not drawn) [Example 113, N-hydroxy-2-(3-(4-(((2-phenylcyclopropyl)amino)methyl)piperidin-1-yl)propyl)oxazole-4-carboxamide TFA Salt], the half-inhibitory concentration (IC50) is more than 10000 nM in data set [1] and 26 nM at LSD1. For the same molecule, the concentration for a half-maximal effect (EC50) in the data set on MM1S (MM1S cells) is more than 10000 nM. Further, in data set [2], the “Metabolic stability HLM % remaining in 30 min” value stood at 78%. Also, the “Metabolic stability MLM % remaining in 30 min” value in data set [3] worked out at 76%.
Regarding `O=C(NO)c1ccc(/C=C/C(=O)N2CCC(CN[C@H]3C[C@@H]3c3ccc(F)cc3)CC2)cc1` [Example 115, 4-((E)-3-(4-((((1S,2R)-2-(4-fluorophenyl)cyclopropyl)amino)methyl)piperidin-1-yl)-3-oxoprop-1-en-1-yl)-N-hydroxybenzamide TFA Salt], the half-maximal inhibitory concentration (IC50) in data set [1] turned out to be 53 nM; on LSD1 (read-out: LSD1 IC50) it was 65 nM. Besides, the concentration for a half-maximal effect (EC50) in the data set on MM1S (MM1S cells) was found to be 10 nM. Besides, the “Metabolic stability HLM % remaining in 30 min” value in data set [2] came out at 75%. In data set [3], the “Metabolic stability MLM % remaining in 30 min” value worked out at 45%.
Consider `O=C(NO)c1ccc(/C=C/C(=O)N2CCC(CNC3CC3c3ccc(-c4cncnc4)cc3)CC2)cc1` (stereo not drawn) [Example 117, (E)-N-hydroxy-4-(3-oxo-3-(4-(((2-(4-(pyrimidin-5-yl)phenyl)cyclopropyl)amino)methyl)piperidin-1-yl)prop-1-en-1-yl)benzamide TFA Salt], for which the 50% inhibitory concentration (IC50) in data set [1] amounted to 74 nM; at LSD1 (read-out: LSD1 IC50), 46 nM. The EC50 with MM1S was 460 nM. Moreover, the “Metabolic stability HLM % remaining in 30 min” value in data set [2] amounted to 80%. For the same molecule, the “Metabolic stability MLM % remaining in 30 min” value in data set [3] is on record as 82%.
In the same order, the values of `O=C(NO)c1ccc(/C=C/C(=O)N2CC(CNC3CC3c3ccc(F)cc3)C2)cc1` (stereo not drawn) [Example 118, (E)-4-(3-(3-(((2-(4-fluorophenyl)cyclopropyl)amino)methyl)azetidin-1-yl)-3-oxoprop-1-en-1-yl)-N-hydroxybenzamide TFA Salt] are 58 nM, 37 nM, 21 nM, 77% and 76%.
Consider `Cn1cc(-c2ccc(C3CC3NCC3CN(C(=O)/C=C/c4ccc(C(=O)NO)cc4)C3)cc2)cn1` (stereo not drawn) [Example 119, (E)-N-hydroxy-4-(3-(3-(((2-(4-(1-methyl-1H-pyrazol-4-yl)phenyl)cyclopropyl)amino)methyl)azetidin-1-yl)-3-oxoprop-1-en-1-yl)benzamide TFA Salt], for which the 50% inhibitory concentration (IC50) in data set [1] was 49 nM; on LSD1 (read-out: LSD1 IC50), 19 nM. Moreover, the concentration giving a half-maximal response (EC50) in the data set with MM1S came to 772 nM. For the same molecule, the “Metabolic stability HLM % remaining in 30 min” value in data set [2] amounted to 72%. The “Metabolic stability MLM % remaining in 30 min” value in data set [3] is on record as 49%.
On to `Nc1ccccc1NC(=O)c1ccc(CCCN2CC3(CC(NC4CC4c4ccccc4)C3)C2)cc1` (stereo not drawn) [Example 127, N-(2-aminophenyl)-4-(3-(6-((2-phenylcyclopropyl)amino)-2-azaspiro[3.3]heptan-2-yl)propyl)benzamide TFA Salt], for which the IC50 was more than 10000 nM in data set [1] and 764 nM on LSD1 (read-out: LSD1 IC50). Moreover, in the data set on MM1S (MM1S cells), the concentration giving a half-maximal response (EC50) was 126 nM. In addition, the “Metabolic stability HLM % remaining in 30 min” value in data set [2] is on record as 17%. Further, in data set [3], the “Metabolic stability MLM % remaining in 30 min” value was 19%.
For `Nc1ccc(F)cc1NC(=O)c1ccc(CCCN2CCC(CNC3CC3c3ccc(F)cc3)CC2)cc1` (stereo not drawn) [Example 132, N-(2-amino-5-fluorophenyl)-4-(3-(4-(((2-(4-fluorophenyl)cyclopropyl)amino)methyl)piperidin-1-yl)propyl)benzamide TFA Salt], the IC50 in data set [1] was more than 10000 nM; at LSD1 (read-out: LSD1 IC50), 5 nM. Further, in the data set with MM1S, the concentration giving a half-maximal response (EC50) is 21 nM. In addition, the “Metabolic stability HLM % remaining in 30 min” value in data set [2] came out at 81%. In addition, in data set [3], the “Metabolic stability MLM % remaining in 30 min” value worked out at 80%.
In the case of `Nc1ccccc1NC(=O)c1ccc(CCC(=O)N2CCC(CNC3CC3c3ccccc3)CC2)cc1` (stereo not drawn) [Example 134, N-(2-aminophenyl)-4-(3-oxo-3-(4-(((2-phenylcyclopropyl)amino)methyl)piperidin-1-yl)propyl)benzamide TFA Salt], the IC50 in data set [1] is more than 10000 nM; at LSD1 (read-out: LSD1 IC50) it was 42 nM. Moreover, the EC50 in the data set with MM1S was determined as 174 nM. Besides, in data set [2], the “Metabolic stability HLM % remaining in 30 min” value is recorded as 10/10%. Besides, in data set [3], the “Metabolic stability MLM % remaining in 30 min” value is given as 10/10%.
Take `Nc1ccccc1NC(=O)c1ccc(CCCn2cnc(CNC3CC3c3ccccc3)c2)cc1` (stereo not drawn) [Example 136, N-(2-aminophenyl)-4-(3-(4-(((2-phenylcyclopropyl)amino)methyl)-1H-imidazol-1-yl)propyl)benzamide TFA Salt]: the IC50 in data set [1] was more than 10000 nM; at LSD1 (read-out: LSD1 IC50) it was 570 nM. The EC50 with MM1S is 174 nM. The “Metabolic stability HLM % remaining in 30 min” value in data set [2] is given as 4%. Further, the “Metabolic stability MLM % remaining in 30 min” value in data set [3] is recorded as 3%.
For the molecule `Nc1ccccc1NC(=O)c1ccc(CN2CCC(CN[C@@H]3C[C@H]3c3ccccc3)CC2)cc1` [Example 140, N-(2-aminophenyl)-4-((4-((((1R,2S)-2-phenylcyclopropyl)amino)methyl)piperidin-1-yl)methyl)benzamide TFA Salt], the figures for the IC50 (in data set [1]; at LSD1 (read-out: LSD1 IC50)) were more than 10000 nM and 2 nM, respectively. Further, the EC50 with MM1S amounted to 2 nM. The “Metabolic stability HLM % remaining in 30 min” value in data set [2] worked out at 85%. Also, the “Metabolic stability MLM % remaining in 30 min” value in data set [3] is 83%.
Take `Cn1cc(-c2ccc(C3CC3NCC3CCN(Cc4ccc(C(=O)Nc5ccccc5N)cc4)CC3)cc2)ccc1=O` (stereo not drawn) [Example 141, N-(2-aminophenyl)-4-((4-(((2-(4-(1-methyl-6-oxo-1,6-dihydropyridin-3-yl)phenyl)cyclopropyl)amino)methyl)piperidin-1-yl)methyl)benzamide TFA Salt]: the IC50 in data set [1] is more than 10000 nM; at LSD1 (read-out: LSD1 IC50), 30 nM. In addition, the EC50 in the data set on MM1S is 194 nM. In addition, the “Metabolic stability HLM % remaining in 30 min” value in data set [2] was determined as 88%. Also, in data set [3], the “Metabolic stability MLM % remaining in 30 min” value came to 75%.
Take `Cc1noc(C)c1-c1ccc(C2CC2NCC2CCN(Cc3ccc(C(=O)Nc4ccccc4N)cc3)CC2)cc1` (stereo not drawn) [Example 143, N-(2-aminophenyl)-4-((4-(((2-(4-(3,5-dimethylisoxazol-4-yl)phenyl)cyclopropyl)amino)methyl)piperidin-1-yl)methyl)benzamide TFA Salt]: the 50% inhibitory concentration (IC50) in data set [1] is more than 10000 nM; at LSD1 (read-out: LSD1 IC50), 37 nM. Also, the EC50 in the data set on MM1S stood at 102 nM. The “Metabolic stability HLM % remaining in 30 min” value in data set [2] is reported as 37%. Further, the “Metabolic stability MLM % remaining in 30 min” value in data set [3] is 50%.
For `Nc1ccccc1NC(=O)c1ccc(CN2CCC(CNC3CC3c3ccc(-c4cncnc4)cc3)CC2)cc1` (stereo not drawn) [Example 144, N-(2-aminophenyl)-4-((4-(((2-(4-(pyrimidin-5-yl)phenyl)cyclopropyl)amino)methyl)piperidin-1-yl)methyl)benzamide TFA Salt], the IC50 was more than 10000 nM in data set [1] and 41 nM on LSD1 (read-out: LSD1 IC50). The concentration for a half-maximal effect (EC50) in the data set with MM1S is 152 nM. Further, in data set [2], the “Metabolic stability HLM % remaining in 30 min” value amounted to 68%. Besides, the “Metabolic stability MLM % remaining in 30 min” value in data set [3] is 52%.
As for `Nc1ccccc1NC(=O)c1ccc(CC(=O)N2CCC(CNC3CC3c3ccc(F)cc3)CC2)cc1` (stereo not drawn) [Example 147, N-(2-aminophenyl)-4-(2-(4-(((2-(4-fluorophenyl)cyclopropyl)amino)methyl)piperidin-1-yl)-2-oxoethyl)benzamide TFA Salt], the results for the concentration for half-maximal inhibition (IC50) (in data set [1]; at LSD1 (read-out: LSD1 IC50)) were more than 10000 nM and 32 nM, respectively. In the data set on MM1S, the EC50 was 29 nM. In addition, the “Metabolic stability HLM % remaining in 30 min” value in data set [2] is 48%. Further, the “Metabolic stability MLM % remaining in 30 min” value in data set [3] was less than 5%.
In the case of `Nc1ccccc1NC(=O)c1ccc(OCCNC2CC2c2ccc(F)cc2)cc1` (stereo not drawn) [Example 148, N-(2-aminophenyl)-4-(2-((2-(4-fluorophenyl)cyclopropyl)amino)ethoxy) benzamide TFA Salt], the values for the half-maximal inhibitory concentration (IC50) (in data set [1]; at LSD1 (read-out: LSD1 IC50)) were more than 10000 nM and 24 nM, respectively. Besides, in the data set with MM1S (MM1S cells), the half-maximal effective concentration (EC50) stood at 40 nM. For the same molecule, in data set [2], the “Metabolic stability HLM % remaining in 30 min” value stood at 46%. For the same molecule, the “Metabolic stability MLM % remaining in 30 min” value in data set [3] is on record as 34%.
In the same order, the values of `Nc1ccccc1NC(=O)c1cnc(NCCN2CCC(CNC3CC3c3ccc(F)cc3)CC2)nc1` (stereo not drawn) [Example 150] are more than 10000 nM, 16 nM, 411 nM, >95/>95% and >95/>95%.
For `Nc1ccccc1NC(=O)c1ccc(/C=C/C(=O)N2CCC(CNC3CC3c3ccc(F)cc3)CC2)cc1` (stereo not drawn) [Example 156], the figures for the half-maximal inhibitory concentration (IC50) (in data set [1]; on LSD1 (read-out: LSD1 IC50)) were more than 10000 nM and 186 nM, respectively. In addition, in the data set on MM1S (MM1S cells), the 50% effective concentration (EC50) was found to be 97 nM. Also, the “Metabolic stability HLM % remaining in 30 min” value in data set [2] came out at 58%. In addition, in data set [3], the “Metabolic stability MLM % remaining in 30 min” value is 49%.
In the case of `Nc1ccccc1NC(=O)c1ccc(/C=C/C(=O)N2CC(CNC3CC3c3ccc(F)cc3)C2)cc1` (stereo not drawn) [Example 157, (E)-N-(2-aminophenyl)-4-(3-(3-(((2-(4-fluorophenyl)cyclopropyl)amino)methyl)azetidin-1-yl)-3-oxoprop-1-en-1-yl)benzamide TFA Salt], the half-maximal inhibitory concentration (IC50) in data set [1] is more than 10000 nM; on LSD1 (read-out: LSD1 IC50), 58 nM. Further, the EC50 with MM1S was 167 nM. In addition, the “Metabolic stability HLM % remaining in 30 min” value in data set [2] is 53%. Also, the “Metabolic stability MLM % remaining in 30 min” value in data set [3] worked out at 63%.
